The results in this text go back to ChEMBL document CHEMBL1201862, “PubChem BioAssay data set” (2004).

Among the test systems are UO-31; SK-OV-3; NCI-H23; SR; NCI-H460; SW-620; HOP-62; SK-MEL-5; LOX IMVI; CAKI-1; SK-MEL-28; 786-0; M14; SNB-19; DU-145; NCI/ADR-RES; PC-3; MDA-MB-231; MCF7.
Holding throughout (assay): NCI-60 cell line screen, 48 h

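The compound was tested at five concentrations on cells cultured in 96-well plates, with a 48-hour exposure period. The concentration for 50% growth inhibition is given as GI50.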 Calls of active or inactive are those of the source. No stated cut-off is given here; in the data, active = GI50 up to about 1.1 µM and inactive = higher.

On to `CCc1cccc(C(C)C)c1C1C(=O)C(=O)N(c2nc3ccccc3s2)C(=O)C1=O`, for which the GI50 with UO-31, with SK-OV-3, in the assay on NCI-H23, in the assay on SR, in the assay on NCI-H460 and in the assay with SW-620 was > 100 µM (inactive) in each case. Besides, the GI50 in the assay on HOP-62, in the assay on SK-MEL-5, with LOX IMVI, with CAKI-1, in the assay with SK-MEL-28 and in the assay with 786-0 was > 100 µM (inactive) throughout. Further, the figures for the GI50 with M14 and with SNB-19 were > 100 µM (inactive) and 71.9 µM (inactive), respectively.
For the molecule `Cc1[nH]c(=O)[nH]c(=S)c1C(=O)NC(C)(CO)CO`, the GI50 with UO-31, in the assay on SK-OV-3, in the assay with DU-145, in the assay on NCI/ADR-RES, in the assay on NCI-H23 and in the assay on NCI-H460 was > 100 µM (inactive) each time. Further, the GI50 with SW-620, with HOP-62, in the assay with PC-3, in the assay on SK-MEL-5, in the assay with LOX IMVI and in the assay on MDA-MB-231 was > 100 µM (inactive) throughout. The GI50 with CAKI-1, in the assay on SK-MEL-28, in the assay with 786-0, in the assay on M14, in the assay with SNB-19 and in the assay on MCF7 was > 100 µM (inactive) in each case.
Consider `COC(=O)N/N=C/c1oc(-c2ccccc2)c(-c2ccccc2)c1[N+](=O)[O-]`, for which the GI50 in the assay with UO-31, with SK-OV-3, in the assay on NCI-H23, in the assay on SR, in the assay on NCI-H460 and with SW-620 was > 100 µM (inactive) in each case. Further, the GI50 in the assay on HOP-62, with SK-MEL-5, in the assay with LOX IMVI, in the assay with CAKI-1, in the assay on SK-MEL-28 and with 786-0 was > 100 µM (inactive) in each case. Further, the GI50 with M14 and in the assay on SNB-19 was > 100 µM (inactive) throughout.
`O=C1C[C@H](c2ccc(O)c(O)c2)Oc2cc(O)cc(O)c21`: the GI50 in the assay with UO-31 is 29.8 µM (inactive); in the assay with SK-OV-3, > 100 µM (inactive); in the assay with NCI-H23 it was > 100 µM (inactive); in the assay on SR, 27 µM (inactive); in the assay on NCI-H460, 72.4 µM (inactive); with SW-620 it was > 100 µM (inactive). Besides, the GI50 in the assay on HOP-62 is > 100 µM (inactive); with SK-MEL-5, > 100 µM (inactive); in the assay on LOX IMVI, > 100 µM (inactive); in the assay on CAKI-1, > 100 µM (inactive); in the assay on SK-MEL-28, 90.6 µM (inactive); in the assay on 786-0 it was > 100 µM (inactive). Besides, the GI50 with M14 and with SNB-19 was > 100 µM (inactive) in each case.
As to `O=C1C=C(O)c2nc(O)ccc2C1=O`, the GI50 in the assay with UO-31, in the assay on SK-OV-3, in the assay on NCI-H23, in the assay with SR, in the assay on NCI-H460 and in the assay on SW-620 was > 100 µM (inactive) throughout. Moreover, the GI50 with HOP-62, with SK-MEL-5, in the assay with LOX IMVI, with CAKI-1, in the assay with SK-MEL-28 and in the assay with 786-0 was > 100 µM (inactive) throughout. Also, the GI50 in the assay on M14 and in the assay on SNB-19 was > 100 µM (inactive) throughout.
Regarding `C/C(CC1SCCCS1)=C(/C)CC1SCCCS1`, the GI50 in the assay with UO-31, in the assay on DU-145, in the assay on NCI/ADR-RES, with NCI-H23, with SR and in the assay with NCI-H460 was > 100 µM (inactive) in each case. Further, the GI50 in the assay with SW-620, in the assay with HOP-62, in the assay with PC-3, in the assay with SK-MEL-5, with LOX IMVI and in the assay with MDA-MB-231 was > 100 µM (inactive) in each case. Moreover, the GI50 with CAKI-1, in the assay with SK-MEL-28, with 786-0, in the assay on M14, in the assay on SNB-19 and in the assay on MCF7 was > 100 µM (inactive) throughout.
In the case of `Nc1nc(Cl)cc(OCC2(CO)CC=CC2)n1`, the GI50 in the assay on DU-145, with NCI/ADR-RES, in the assay on NCI-H23, with SR, with NCI-H460 and in the assay with SW-620 was > 100 µM (inactive) throughout. Moreover, the GI50 in the assay on HOP-62, in the assay with PC-3, in the assay on SK-MEL-5, in the assay with LOX IMVI, in the assay with SK-MEL-28 and in the assay with 786-0 was > 100 µM (inactive) throughout. Further, the GI50 with SNB-19 and in the assay on MCF7 was > 100 µM (inactive) each time.
Take `COc1cc2c(cc1OC)C(C(CBr)CBr)N(C1CCCC1)CC2` (stereo not drawn): the GI50 in the assay on UO-31, in the assay with SK-OV-3, in the assay on NCI-H23, in the assay on SR, in the assay on NCI-H460 and in the assay with SW-620 was > 100 µM (inactive) in each case. Further, the GI50 in the assay with HOP-62, in the assay on SK-MEL-5, in the assay on LOX IMVI, in the assay on CAKI-1, in the assay on SK-MEL-28 and in the assay on 786-0 was > 100 µM (inactive) each time. In addition, the GI50 in the assay on M14 and in the assay on SNB-19 was > 100 µM (inactive) throughout.
With `N#CC(/C(CCCC(=O)Nc1cccc([N+](=O)[O-])c1)=N/NC(=O)c1cc2ccccc2cc1O)c1ccccc1` (stereo not drawn), the GI50 was 6.56 µM (inactive) in the assay on UO-31; 61.8 µM (inactive) in the assay with SK-OV-3; 20 µM (inactive) in the assay on NCI-H23; 26.8 µM (inactive) in the assay with SR; 21.2 µM (inactive) with NCI-H460; 34.6 µM (inactive) in the assay on SW-620. Moreover, the GI50 was 60.7 µM (inactive) in the assay with HOP-62; 21.2 µM (inactive) in the assay with SK-MEL-5; 16.4 µM (inactive) in the assay on LOX IMVI; 28 µM (inactive) with CAKI-1; > 100 µM (inactive) in the assay on SK-MEL-28; 24.2 µM (inactive) with 786-0. The GI50 was 16.3 µM (inactive) in the assay with M14 and 28.8 µM (inactive) in the assay with SNB-19.
As to `CC(=O)Nc1ccc(-c2nc3ccccc3s2)cc1O`, the GI50 in the assay with UO-31 is 19.6 µM (inactive); in the assay on DU-145 it was 34.8 µM (inactive); in the assay with NCI/ADR-RES, 17.1 µM (inactive); with NCI-H23, 24.5 µM (inactive); in the assay on SR, 61.9 µM (inactive); in the assay with NCI-H460 it was 28.6 µM (inactive). The GI50 with SW-620 was 84.5 µM (inactive); in the assay on HOP-62 it was 32.3 µM (inactive); in the assay with PC-3, 51.2 µM (inactive); in the assay with SK-MEL-5 it was 20.4 µM (inactive); in the assay with LOX IMVI, 41.3 µM (inactive); in the assay on MDA-MB-231, 78.2 µM (inactive). Further, the GI50 in the assay on CAKI-1 was 27 µM (inactive); with SK-MEL-28, 80.5 µM (inactive); with 786-0 it was 41.1 µM (inactive); in the assay on M14, 59.2 µM (inactive); with SNB-19, > 100 µM (inactive).
In the case of `O=C(/C=C\c1ccc(Cl)cc1Cl)c1cccs1`, the GI50 in the assay on UO-31 is 11.9 µM (inactive); with SK-OV-3, 26.1 µM (inactive); in the assay on DU-145, 21.3 µM (inactive); with NCI/ADR-RES, 30.4 µM (inactive); with NCI-H23, 19.2 µM (inactive); with SR, 5.61 µM (inactive). The GI50 in the assay on NCI-H460 is 23.9 µM (inactive); with SW-620, 12.5 µM (inactive); in the assay with HOP-62, 24.3 µM (inactive); with PC-3, 16.4 µM (inactive); in the assay on SK-MEL-5 it was 16.3 µM (inactive); with LOX IMVI, > 10 µM (inactive). The GI50 with MDA-MB-231 is 16.7 µM (inactive); in the assay with CAKI-1 it was 24.2 µM (inactive); with SK-MEL-28, 24.5 µM (inactive); with 786-0, 17.5 µM (inactive); in the assay on M14 it was 18.8 µM (inactive); with SNB-19, 17 µM (inactive). Also, in the assay with MCF7, the GI50 is 6.89 µM (inactive).
On to `COc1cc(C2c3cc4c(cc3[C@@H](Nc3ccc(F)cc3)C3CO[C@@H](O)[C@H]23)OCO4)cc(OC)c1O` (stereo partly drawn), for which the GI50 with UO-31 is 1.24 µM (inactive); with SK-OV-3, 8.65 µM (inactive); in the assay with NCI/ADR-RES, 7.36 µM (inactive); in the assay with NCI-H460, 0.169 µM (active); in the assay on SW-620, 8.38 µM (inactive); in the assay on HOP-62, 5.07 µM (inactive). In addition, the GI50 was 3.61 µM (inactive) with PC-3; 6.18 µM (inactive) in the assay on SK-MEL-5; 3.48 µM (inactive) in the assay with MDA-MB-231; 7.85 µM (inactive) in the assay on SK-MEL-28; 4.61 µM (inactive) in the assay on 786-0; 5.26 µM (inactive) with M14. In addition, the GI50 in the assay with SNB-19 is 3.64 µM (inactive); in the assay with MCF7 it was 1.9 µM (inactive).
For the molecule `O=C(O)c1nn[nH]c1S`, the GI50 in the assay on UO-31, with SK-OV-3, with DU-145, in the assay on NCI/ADR-RES, with NCI-H23 and in the assay with SR was > 100 µM (inactive) each time. Besides, the GI50 in the assay on NCI-H460, with SW-620, in the assay with HOP-62, in the assay on PC-3, in the assay on SK-MEL-5 and in the assay on LOX IMVI was > 100 µM (inactive) throughout. In addition, the GI50 with MDA-MB-231, in the assay on CAKI-1, in the assay with SK-MEL-28, in the assay on 786-0, in the assay with M14 and in the assay on SNB-19 was > 100 µM (inactive) throughout. The GI50 with MCF7 is > 100 µM (inactive).
